Source: PubChem BioAssay (NCI)
Where “and” joins values, the source holds several entries; their conditions need not be identical. Equal entries are not always repeated.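 Interpolation was linear, between the two tested concentrations surrounding the appropriate level; five concentrations were tested over 48 hours in 96-well plates. GI50 marks 50% less growth. Definition used: TGI = concentration required for complete inhibition of growth.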

Experiments:
Assay in all cases: NCI tumour cell line growth inhibition, 48 h
[1] = system: LOX IMVI melanoma
[2] = system: DU-145 prostate
[3] = system: RPMI-8226 leukemia
[4] = system: COLO 205 colon
[5] = system: OVCAR-5 ovarian
[6] = system: NCI-H226 lung
[7] = system: HL-60(TB) leukemia
[8] = system: HT29 colon
[9] = system: NCI-H460 lung
[10] = system: MALME-3M melanoma

| Structure (SMILES) | TGI [1] [µM] | TGI [2] [µM] | TGI [3] [µM] | TGI [4] | TGI [5] | TGI [6] [µM] | TGI [7] | TGI [8] | TGI [9] [µM] | TGI [10] [µM] | GI50 [3] | GI50 [4] | GI50 [10] | GI50 [5] | GI50 [2] [µM] | GI50 [9] [µM] | GI50 [7] [µM] |
| --- | --- | --- | --- | --- | --- | --- | --- | --- | --- | --- | --- | --- | --- | --- | --- | --- | --- |
| COc1ccc2[nH]c(C(=O)N3CC(CCl)c4c3cc(N)c3ccccc43)cc2c1 (stereo unspecified) | 0.0223 | < 0.01 | 0.138 | < 0.0167 µM | 0.315 µM | < 0.0225 | < 0.01 µM | 1.1 µM |  |  |  |  |  |  |  |  |  |
| COC(=O)NC(Cc1ccccc1)NC(C)=O (stereo unspecified) | > 100 | > 100 | > 100 | > 100 µM | > 100 µM |  | > 100 µM | > 100 µM | > 100 | > 100 |  |  |  |  |  |  |  |
| CCN(CC)CCOc1ccc(C(O)(Cc2ccc(OC)cc2)c2ccccc2)cc1 (stereo unspecified) | 29 |  | 39.7 | 24.9 µM | 61.5 µM | 77.5 | 24.9 µM | 14.6 µM | 51.9 | 33 |  |  |  |  |  |  |  |
| CC(=O)Oc1cc(OC(C)=O)c2c(C)cc(=O)oc2c1 | > 100 | > 100 | > 100 | > 100 µM | > 100 µM | > 100 |  | > 100 µM |  | > 100 |  |  |  |  |  |  |  |
| O=C(O)CCc1ccc2c(c1)CC1(Cc3ccccc3C1)C2 | > 100 |  | > 100 | > 100 µM | > 100 µM | > 100 |  | > 100 µM |  | > 100 |  |  |  |  |  |  |  |
| O=[N+]([O-])c1ccc(N2N=C(c3ccc4ccccc4c3O)CC2c2ccc(Cl)cc2)c([N+](=O)[O-])c1 (stereo unspecified) |  | > 100 | 63.2 | > 100 µM | > 100 µM | > 100 |  | > 100 µM | > 100 | > 100 |  |  |  |  |  |  |  |
| CN(Cc1cnc2nc(N)nc(N)c2n1)c1ccc(C(=O)NC(CCC(=O)NC(CC(P(=O)(O)O)P(=O)(O)O)C(=O)O)C(=O)O)cc1 (stereo unspecified) | > 100 | > 100 |  | > 100 µM | > 100 µM | > 100 |  | > 100 µM | > 100 | > 100 |  |  |  |  |  |  |  |
| COC([C@@H](OC(=O)c1ccccc1)[C@H](OC(=O)c1ccccc1)C(O)COC(=O)c1ccccc1)n1cc(C)c(=O)[nH]c1=O (stereo partly specified) | > 100 | > 100 | > 100 | 51.9 µM | 62.6 µM | 74.5 |  | 41.4 µM | > 100 | 91.7 |  |  |  |  |  |  |  |
| O=C(N/N=C(/COc1ccccc1Cl)N=Cc1ccncc1)c1ccncc1 | > 100 | > 100 | > 100 | > 100 µM | > 100 µM |  | > 100 µM | > 100 µM | > 100 | > 100 |  |  |  |  |  |  |  |
| Cc1c2ccccc2c(C)n2c1nc1ccccc12 |  | > 100 | > 100 |  | 48.3 µM | 37.8 | > 100 µM | 69 µM | 20.1 | 23.5 |  |  |  |  |  |  |  |
| Cn1ccnc1CCc1ccc(Cl)c(Cl)c1 | > 100 |  | > 100 | > 100 µM | > 100 µM | > 100 | > 100 µM | > 100 µM | > 100 | > 100 |  |  |  |  |  |  |  |
| CC(=O)OC(C)(C)CCC(=O)[C@](C)(O)[C@H]1[C@H](O)C[C@@]2(C)[C@@H]3CC=C4C(C)=C(OC5OC(CO)C(O)C(O)C5O)C(=O)C[C@@H]4[C@]3(C)C(=O)C[C@]12C (stereo partly specified) | > 100 | > 100 |  | > 100 µM | > 100 µM | > 100 |  | > 100 µM | > 100 | > 100 |  |  |  |  |  |  |  |
| CN(C)c1ccc(/C=C/C(=O)O)cc1 | > 100 |  | > 100 | > 100 µM | > 100 µM | > 100 | > 100 µM | > 100 µM | > 100 | > 100 |  |  |  |  |  |  |  |
| CC(=O)NC1(C(=O)N[C@@H](Cc2ccccc2)C(=O)NC2CCCCC2)Cc2ccc3ccccc3c2-c2c(ccc3ccccc23)C1 | > 100 |  | > 100 | 4.44 µM and 15.9 µM | > 100 µM and 98 µM |  | 26.2 µM and 27.4 µM | > 100 µM and 57.5 µM | > 100 | > 100 | 3.31 µM and 13.9 µM | 2.2 µM and 5.01 µM | 5 µM and 19.4 µM | 26.5 µM and 11.5 µM |  |  |  |
| COc1c2ccsc2c(OC)c2ccsc12 | > 100 | > 100 |  | > 100 µM | > 100 µM | > 100 | > 100 µM | > 100 µM | > 100 | > 100 |  |  |  |  |  |  |  |
| Cc1c(O)c(OC2OC(CO)C(O)C(O)C2O)cc2c1C=C[C@@H]1[C@@]2(C)C(=O)C[C@]2(C)[C@@H]([C@@](C)(O)C(=O)CCC(C)(C)O)[C@H](O)C[C@@]12C (stereo partly specified) | 59.2 | 56.6 |  | > 100 µM | 61.2 µM | 62.7 | > 100 µM | 83.1 µM | 48 | 50 |  |  |  |  |  |  |  |
| COP(=O)(O)C(N)Cc1c[nH]c2ccccc12 (stereo unspecified) | > 100 | > 100 | > 100 | > 100 µM | > 100 µM | > 100 |  | > 100 µM | > 100 |  |  |  |  |  |  |  |  |

| Structure (SMILES) | TGI [1] [µM] | TGI [2] [µM] | TGI [3] [µM] | TGI [4] | TGI [5] | TGI [6] [µM] | TGI [7] | TGI [8] | TGI [9] [µM] | TGI [10] [µM] | GI50 [3] | GI50 [4] | GI50 [10] | GI50 [5] | GI50 [2] [µM] | GI50 [9] [µM] | GI50 [7] [µM] |
| --- | --- | --- | --- | --- | --- | --- | --- | --- | --- | --- | --- | --- | --- | --- | --- | --- | --- |
| Clc1ccc(C2CC(c3cccc(Nc4ccncc4)c3)=NN2c2cc(Cl)cc(Cl)c2)cc1 (stereo unspecified) |  | 3.39 |  | 4.62 µM | 3.33 µM |  | 5.05 µM |  | 4.03 | 3.68 |  | 2.14 µM | 1.77 µM | 1.78 µM | 1.85 | 1.97 | 2.2 |
| C[n+]1c2ccccc2c(/C=N\NS(=O)(=O)c2ccc(Cl)cc2)c2ccccc21 | > 100 |  | > 100 |  | > 100 µM | > 100 | 88.4 µM | > 100 µM | > 100 | > 100 |  |  |  |  |  |  |  |
| CC(C)(C)OC(=O)N1[C@@H]2Cc3ccc(N)cc3[C@@]1(C)c1ccccc12 | 62.1 | > 100 | 48.6 |  | > 100 µM |  | 44.9 µM | 44.1 µM | 48.8 | 91 |  |  |  |  |  |  |  |
| CCOC(=O)CCC(NC(=O)Cc1ccc(Oc2nc3ccccc3nc2-c2ccccc2)cc1)C(=O)OCC (stereo unspecified) |  | > 100 | > 100 | > 100 µM | > 100 µM | 78.9 | > 100 µM | > 100 µM | > 100 | > 100 |  |  |  |  |  |  |  |
| COc1cccc(-c2nccc3c(OCc4ccccc4)c(OC)c(OC)cc23)c1 | > 100 |  | > 100 | > 100 µM | > 100 µM | > 100 | > 100 µM | > 100 µM |  | > 100 |  |  |  |  |  |  |  |
| COc1ccc2c(c1)CCN1CCCc3ccccc3C21 (stereo unspecified) | 57.9 | > 100 | 58.2 | > 100 µM | > 100 µM | > 100 |  | > 100 µM |  |  |  |  |  |  |  |  |  |
| O=C(c1ccc(O)c([N+](=O)[O-])c1)c1ccc(O)c([N+](=O)[O-])c1 | > 100 | > 100 | > 100 | > 100 µM | > 100 µM | > 100 |  | > 100 µM | > 100 | 98.6 |  |  |  |  |  |  |  |
| CCCCCCCCCCCCCCCCCC(=O)Nc1ccn(C2CCC(COP(=O)(O)O)O2)c(=O)n1 (stereo unspecified) | > 100 | > 100 | > 100 | > 100 µM | > 100 µM | > 100 |  | > 100 µM |  |  |  |  |  |  |  |  |  |
| COc1ccc(CNc2nc3cc(C(F)(F)F)ccc3nc2-c2ccccc2)cc1OC | 76.8 | > 100 |  | > 100 µM | > 100 µM |  | > 100 µM | 61.1 µM | 46.5 | > 100 |  |  |  |  |  |  |  |
| O=C1C2=C(SCCS2)C(=O)c2c(Sc3ccc(Cl)cc3)c(Sc3ccc(Cl)cc3)c(Sc3ccc(Cl)cc3)c(Sc3ccc(Cl)cc3)c21 |  | > 100 | > 100 | > 100 µM | > 100 µM | > 100 |  |  | > 100 | 69.8 |  |  |  |  |  |  |  |
| CCCN(CCC)C1CCc2c(ccc3cc[nH]c23)C1 (stereo unspecified) |  | > 100 | > 100 | > 100 µM | > 100 µM | > 100 |  | > 100 µM | > 100 | > 100 |  |  |  |  |  |  |  |
| O=[N+]([O-])c1ccc([N+]2=NC(c3ccccc3)=NN(c3ccccc3)C2)cc1 | > 100 |  | > 100 | > 100 µM | > 100 µM | > 100 | > 100 µM | > 100 µM | > 100 | > 100 |  |  |  |  |  |  |  |
| O=C(CSc1nnc(-c2ccc(N=Cc3ccc(Cl)cc3)cc2)o1)Nc1ccc([N+](=O)[O-])cc1 | 22.4 |  | 8.01 | > 100 µM |  | 48.6 | 63.9 µM | 35.9 µM | > 100 | > 100 |  |  |  |  |  |  |  |
| CCOc1ccc(/C=C2\NC(=S)N(/C=C3\C(=O)Oc4ccccc4C3=O)C2=O)cc1 | 87.5 | 57.7 |  | 43.4 µM | > 100 µM | 45.7 | 33.7 µM | 82.1 µM | 51.8 |  |  |  |  |  |  |  |  |
| COC12C=CC(C=C1C#N)CC2 (stereo unspecified) (tested in a mixture with another compound) |  | > 100 | > 100 | > 100 µM | > 100 µM | > 100 | > 100 µM | > 100 µM | > 100 | > 100 |  |  |  |  |  |  |  |
| Nc1nc(=O)n(C2OC(CO)C(O)C2O)c2ncc(-c3ccc(-c4ccccc4)cc3)nc12 (stereo unspecified) | > 100 | > 100 | > 100 | > 100 µM | > 100 µM | 76.3 |  | > 100 µM | > 100 | > 100 |  |  |  |  |  |  |  |
